Laboratory results published in ChEMBL document CHEMBL4715767, “Pterin-7-carboxamides as a new class of aldose reductase inhibitors” (Bioorg Med Chem Lett, 2016).

Each compound was assayed against T1, Aldo-keto reductase family 1 member B1 (Homo sapiens, UniProt P15121) (assay: Inhibition of recombinant human ALR2 using D,L-glyceraldehyde and NADPH as substrate preincubated for 3 mins followed by substrate addition and measured for 3 mins by spectrophotometric analysis). Details: not given.

Row | SMILES | IC50
1 | Nc1nc2ncc(C(=O)O)nc2c(=O)[nH]1 [PTERIN-6-CARBOXYLIC ACID] | Nd(Insoluble)

Same assay, conditions: read-out: IC50

Row | SMILES | IC50
2 | CC[C@H](C)[C@H](NC(=O)c1cnc2c(=O)[nH]c(N)nc2n1)C(=O)O | 69 µM
3 | Nc1nc2nc(C(=O)N[C@@H](Cc3ccccc3)C(=O)O)cnc2c(=O)[nH]1 | 46 µM
4 | Nc1nc2nc(C(=O)O)cnc2c(=O)[nH]1 | 26.5 µM
5 | CC(C)[C@@H](NC(=O)c1cnc2c(=O)[nH]c(N)nc2n1)C(=O)O | 194 µM
6 | Nc1nc2nc(C(=O)NCCCCCC(=O)O)cnc2c(=O)[nH]1 | 4.02 µM
7 | Nc1nc2nc(C(=O)N[C@H](CO)C(=O)O)cnc2c(=O)[nH]1 | 130 µM
8 | Nc1nc2nc(C(=O)N[C@H](Cc3ccc(O)cc3)C(=O)O)cnc2c(=O)[nH]1 | 580 µM
9 | CC[C@@H](C)[C@@H](NC(=O)c1cnc2c(=O)[nH]c(N)nc2n1)C(=O)O | 278 µM
10 | Nc1nc2nc(C(=O)NCCC(=O)O)cnc2c(=O)[nH]1 | 17.5 µM
11 | Nc1nc2nc(C(=O)N[C@@H](Cc3ccc(O)cc3)C(=O)O)cnc2c(=O)[nH]1 | 216 µM
12 | Nc1nc2nc(C(=O)NCC(=O)O)cnc2c(=O)[nH]1 | 1.97 µM
13 | C[C@@H](NC(=O)c1cnc2c(=O)[nH]c(N)nc2n1)C(=O)O | 72 µM
14 | Nc1nc2nc(C(=O)N[C@H](CCc3ccccc3)C(=O)O)cnc2c(=O)[nH]1 | 42.1 µM
15 | Nc1nc2nc(C(=O)NCCCCC(=O)O)cnc2c(=O)[nH]1 | 11.7 µM
16 | CC(C)[C@H](NC(=O)c1cnc2c(=O)[nH]c(N)nc2n1)C(=O)O | 83.4 µM
17 | CC(C)C[C@@H](NC(=O)c1cnc2c(=O)[nH]c(N)nc2n1)C(=O)O | 97.2 µM
18 | C[C@H](NC(=O)c1cnc2c(=O)[nH]c(N)nc2n1)C(=O)O | 12.4 µM
19 | Nc1nc2ncc(CNc3ccc(C(=O)N[C@@H](CCC(=O)O)C(=O)O)cc3)nc2c(=O)[nH]1 [FOLIC ACID] | 52.5 µM
20 | Nc1nc2nc(C(=O)N[C@@H](CCc3ccccc3)C(=O)O)cnc2c(=O)[nH]1 | 25.1 µM
21 | Nc1nc2nc(C(=O)N[C@H](C(=O)O)c3ccccc3)cnc2c(=O)[nH]1 | 42.6 µM
22 | Nc1nc2nc(C(=O)N[C@@H](CO)C(=O)O)cnc2c(=O)[nH]1 | 29.2 µM
23 | Nc1nc2nc(C(=O)NCCCC(=O)O)cnc2c(=O)[nH]1 | 25.5 µM
24 | Nc1nc2nc(C(=O)N[C@@H](C(=O)O)c3ccccc3)cnc2c(=O)[nH]1 | 56.6 µM
25 | Nc1nc2nc(C(=O)N[C@H](Cc3ccccc3)C(=O)O)cnc2c(=O)[nH]1 | 68.1 µM
26 | CC(C)C[C@H](NC(=O)c1cnc2c(=O)[nH]c(N)nc2n1)C(=O)O | 61.7 µM

What follows are compounds tested against T1, Aldo-keto reductase family 1 member B1 (assay: Inhibition of recombinant human ALR2 at 10.5 mM using D,L-glyceraldehyde and NADPH as substrate preincubated for 3 mins followed by substrate addition and measured for 3 mins by spectrophotometric analysis relative to control). Details: time 6.0 min.

Row | SMILES | inhibition
27 | Nc1nc2nc(C(=O)NCC(=O)N[C@@H](Cc3ccccc3)C(=O)O)cnc2c(=O)[nH]1 | 9%
